# Test results reported in US20220370463A1, “STABILIZED C-FMS INTRACELLULAR FRAGMENTS (FICD) PROMOTE OSTEOCLAST DIFFERENTIATION AND ARTHRITIC BONE EROSION” (New York Society for the Relief of the Ruptured and …, priority 2019, published 2022).
# Assays:
# [1] = system: FICD (mem, H-FICD, L-FICD); experiment: FICD in membrane, cytoplasmic and nuclear fractions of human OCPs, immunoblot; type: cell-based
# Protocol: (a) Human CD14+ cells were cultured with M-CSF (20 ng/ml) for 8 hours to induce early signals and then DAPT (10uM) was added for 2 days. Protein expression of c-FMS, Na+K+ pump, Lamin B1 and α-tubulin, as determined by immunoblot. ME; membrane extracts, CE; cytoplasmic extracts, and NE; nuclear extracts. (b) Immunohistochemistry of DAPI and c-FMS [middle]. […] Scale: 200×. (c) Cells were starved for three hours and then stimulated with M-CSF for the indicated times. (d and e) Cells were treated with Imatinib (0.3 μM, d) or c-FMS blocking antibody (5 μg) prior to the addition of M-CSF. Protein expression of FICD was measured by immunoblot. Lamin B1 and α-tubulin were used as controls for nuclear and cytoplasmic fractions, respectively. (f) Human CD14+ cells were cultured with M-CSF (20 ng/ml) for 8 hours to induce early signals and then MDL 28170(5 uM). Immunoblot with anti c-FMS and Lamin B1 antibodies. (g and h) Calpain 1, 5, and 6 were knocked down with siRNAs. Cells were cultured with M-CSF for 12 hours. (g) Efficiency of knockdown of Calpain 1, 5, and 6. (h) Immunoblot of c-FMS and Lamin B1. All data are shown as mean±SEM. *,p<0.05 by two-tailed, unpaired t-test (g). Representative results from at least three independent experiments.
# (A and B) Human CD14+ cells were cultured with M-CSF (20 ng/ml) for 8 hours to induce early signals and then (A) MDL 28170(0, 1, 2, 5 uM) or (B) PD150606 (0, 2, 5 uM) was added for 2 days. Immunoblot with anti c-FMS and α-tubulin antibodies in whole lysates(n=3). (C) Immunoblot of nuclear lysates with c-FMS and Lamin B1 antibodies. Cells were cultured with M-CSF for 12 hours, and then M-CSF was removed. Cells were subsequently treated with or without CaCl2 (10 mM) for an additional 24 hours. (D) Osteoclastogenesis assay. Human CD14+ cells were cultured with M-CSF, RANKL and MDL28170 for 4 days. […] Black scale bar is 100 μm. […] First two calpain cleavage sites in cytoplasmic domains of c-FMS were used for FICD constructs. (F) A schematic diagram of a FICD construct. Representative results from at least three independent experiments.
# Whole cell extracts were prepared by lysis in buffer containing 1× Lamin sample buffer (Bio-rad) and 2-Mercaptoethanol (Sigma) or RIPA buffer (Sigma). The cell membrane-permeable protease inhibitor, Pefablock (1 mM), was added immediately prior to harvest cells. The membrane proteins were extracted with Mem-PER™ Plus Membrane Protein Extraction Kit (Thermorfisher scientific; 89842) according to manufacturer's instructions. To extracts of nucleus protein, cells were incubated in buffer A (10 mM Hepes, pH 7.9, 1.5 mM MgCl2, 10 mM KCl, 0.1 mM EDTA, 0.1 mM EGTA, proteinase inhibitor cocktail (Complete, Roche) and 1 mM DTT) for 15 min at 4° C. NP-40 was added to a final concentration of 0.5%. Nucleus was collected by centrifugation (5000 rpm, 5 min). The pellets were lysed by Bioruptor-ultrasonicator (UCD400, Diagenode) in buffer B (20 mM Hepes, pH 7.9, 0.4M NaCl, 10 mM KCl, 1 mM EDTA, 1 mM EGTA, 10% Glycerol, proteinase inhibitor cocktail and 1 mM DTT) and collected the supernatant by centrifugation (12,000 rpm, 10 min). The protein concentration of nuclear extracts was quantitated using the Bradford assay (Bio-Rad; 5000001). For immunoblot, proteins were separated on 7.5 or 10% SDS-PAGE gels, transferred to polyvinylidene difluoride membranes (PVDF, Millipore; ISEQ00010), and detected by antibodies as listed in the figure legends.
# L-FICD generation = experiment: Screening of 53 protease inhibitors from a protease library for L-FICD generation; type: cell-based
# Excerpt: To identify the protease(s) responsible for cleavage of H-FICD in an unbiased manner, we performed a screening of 53 protease inhibitors using a protease library. The best hits associated with the inhibition of L-FICD generation were MDL28170 and PD150606—two calpain inhibitors—along with MMP inhibitors and γ-secretase inhibitors. Calpain is the family of calcium-dependent cytosolic cysteine proteases expressed ubiquitously in mammals and many other organisms (Pfaff, M., Du, X. & Ginsberg, M. H. Calpain cleavage of integrin beta cytoplasmic domains. FEBS Lett 460, 17-22 (1999)), and calpain-dependent cleavages contribute to modulating various cellular functions such as apoptosis, proliferation and migration (Deshpande, R. V. et al. Calpain expression in lymphoid cells. Increased mRNA and protein levels after cell activation. J Biol Chem 270, 2497-2505 (1995). Svensson, L. et al. Calpain 2 controls turnover of LFA-1 adhesions on migrating T lymphocytes. PloS one 5, e15090, doi:10.1371/journal.pone.0015090 (2010).). […] Since calpain is activated by calcium, we examined if calcium signaling could compensate for M-CSF signaling to generate FICDs. In the absence of c-FMS signaling, calcium signaling was able to promote the cleavage of […] in the nucleus, and […] reversed the effect of calcium signaling on L-FICD processing (FIG.10C). […]
# [2] = MDL 28170 5 uM after 8 hours M-CSF, nuclear extracts
substance,measurement,setting,value
MDL28170,effect of calcium signaling on L-FICD processing,"[1]; M-CSF removed, CaCl2 (10 mM) for 24 hours, nuclear lysates",reversed
same,enrichment of L-FICD versus H-FICD in the nucleus,[1]; [2],shifted the enrichment of L-FICD to H-FICD in the nucleus
same,translocation of FICD into the nucleus,[1]; [2],did not interfere
same,inhibition of L-FICD generation (hit in screening),L-FICD generation,best hits
